Reference: US20100119997A1, “METHOD FOR PRODUCTION OF MESENCHYMAL CELL, METHOD FOR PRODUCTION OF TOOTH, AND MESENCHYMAL CELL FOR FORMATION OF TOOTH” (ORGAN TECHNOLOGIES INC., priority 2007, published 2010)

Experiments:
AT805 cells (EC cells) [1] = experiment: Differentiation induction of EC cells by DMSO, CD44/CD29 double staining and cell sorter; assay type: cell-based, mouse; conditions: for CD44-positive and CD29-positive cells / Cell number: 14 h treatment
Procedure: As the EC cells, AT805 cells (a clone derived from OTT6050, EC cells of the strain129; obtained from the Cell Bank, RIKEN Bioresource Center) were used. Culturing of AT805 cells was performed using Dulbecco's modified Eagle's medium (DMEM; manufactured by SIGMA or Kohjin Bio Co. Ltd.) supplemented with 10% by volume fetal calf serum (FCS: manufactured by JRH, JBS or Hyclone) and 55 μM 2-mercaptoethanol (manufactured by GIBCO). EC cells were usually plated at a concentration of 5 to 8×10^5 cells per 100 mm dish, and complete replacement of the medium and passage culture were repeated every other day. In passage culture, the cells were washed once with HCMF buffer (pH7.4; 10 mM Hepes, 136.9 mM NaCl, 0.34 mM […], 13.9 mM glucose, 5.37 mM KCl), and 5 ml of an enzyme solution wherein trypsin-EDTA.2Na (manufactured by GIBCO) was dissolved at the final concentration of 0.025% was then added thereto, followed by an enzyme treatment at 37° C. for 1 minute. Subsequently, an equal amount of DMEM supplemented with 10% FCS was added to disperse the cells, and the cells were then precipitated and collected by centrifugation. The collected cells were resuspended and plated on a new culture dish to carry out passage culture.
EC cells collected by trypsin treatment were suspended in DMEM supplemented with 10% by volume FCS and dimethylsulfoxide (DMSO: manufactured by SIGMA) at the final concentration of 0.5 to 5% by volume, and plated at the concentration of 1.0×10^6 cells per 100 mm dish. Culture was carried out under 5% CO2 at 37° C., and after 14 hours, the cells were washed once with HCMF buffer, followed by replacement of the medium with DMEM supplemented with 10% by volume FCS.
EC cells treated with DMSO was continuously cultured for 6 days (19 days only in the case of 5% by volume DMSO) with replacement of a half amount of the medium every 3 days with DMEM supplemented with 10% by volume FCS, and observation was carried out as appropriate. When a cell population containing undifferentiated cells was grown, it washed once with HCMF buffer and then suspended by addition of Ca^2+/Mg^2+-free PBS(−)(EDTA/BSA-PBS) supplemented with 3 mM EDTA and 0.5% BSA, followed by centrifugation to collect cells as precipitates. The cells were resuspended in EDTA/BSA-PBS and then subjected to double staining with an FITC-labeled anti-CD44 antibody (CD44-FITC: manufactured by BD Pharmingen) and a PE-labeled anti-CD29 antibody (CD29-PE: manufactured by BD Pharmingen). A CD44-positive and CD29-positive cell fraction was isolated using a cell sorter, Epics ALTRA (manufactured by Beckman Coulter), to obtain an EC cell fraction wherein differentiation was induced by a DMSO treatment and undifferentiated EC cell were excluded (see FIG. 2). These cells were designated DMSO-EC cells.

AT805 cells (EC cells) [2] = experiment: Differentiation induction of EC cells by retinoic acid, CD44/CD29 double staining and cell sorter; assay type: cell-based, mouse; conditions: 72 h treatment, 7 culture days
Procedure: AT805 cells collected by a trypsin treatment in the same manner as in Example 1 were plated at a concentration of 1.0×10^6 cells per 100 mm dish, and, on the next day, the medium was replaced with DMEM supplemented with 10% by volume FCS, which was also added with retinoic acid (manufactured by SIGMA) at a final concentration of 0 to 10.0 μM, to stimulate the cells. After 72 hours of culture, the cells were washed twice with HCMF buffer, and the whole medium was replaced with DMEM supplemented with 10% by volume FCS only.
Culturing was continued for 7 days with replacement of a half amount of the medium every 3 days with DMEM supplemented with 10% by volume FCS, and observation was carried out as appropriate. A cell population grown after the RA treatment, which contains undifferentiated cells, was washed once with HCMF, and 3 mM EDTA-0.5% BSA-PBS(−) was added thereto, followed by incubation thereof at 37° C. After collecting cells, the cells were subjected to double staining with CD44 FITC (BD Pharmingen) and CD29 (BD Pharmingen) PE to separate and obtain CD44-positive and CD29-positive cells using Epics ALTRA (Beckman Coulter), and thus a cell population after exclusion of undifferentiated cells, which cell population is composed of only differentiated cells, was obtained. These cells were designated RA-EC cells.

[3] = DMSO 5.0 v/v %, 19 culture days

Compound	Survival of EC cells immediately after treatment (AT805 cells (EC cells) [1]; 5% by volume DMSO)	CD44-positive and CD29-positive cells (AT805 cells (EC cells) [1]; DMSO 0.5 v/v %, 6 culture days) [%]	Cell number (AT805 cells (EC cells) [1]; DMSO 0.5 v/v %, 6 culture days)	CD44-positive and CD29-positive cells (AT805 cells (EC cells) [1]; DMSO 1.0 v/v %, 6 culture days) [%]	Cell number (AT805 cells (EC cells) [1]; DMSO 1.0 v/v %, 6 culture days)	CD44-positive and CD29-positive cells (AT805 cells (EC cells) [1]; DMSO 2.5 v/v %, 6 culture days) [%]	Cell number (AT805 cells (EC cells) [1]; DMSO 2.5 v/v %, 6 culture days)	CD44-positive and CD29-positive cells (AT805 cells (EC cells) [1]; [3]) [%]	Cell number (AT805 cells (EC cells) [1]; [3])	CD44-positive and CD29-positive cells (AT805 cells (EC cells) [2]; RA 0.5 μM) [%]	Cell number (AT805 cells (EC cells) [2]; RA 0.5 μM)	CD44-positive and CD29-positive cells (AT805 cells (EC cells) [2]; RA 1.0 μM) [%]	Cell number (AT805 cells (EC cells) [2]; RA 1.0 μM)	CD44-positive and CD29-positive cells (AT805 cells (EC cells) [2]; RA 2.0 μM) [%]	Cell number (AT805 cells (EC cells) [2]; RA 2.0 μM)	CD44-positive and CD29-positive cells (AT805 cells (EC cells) [2]; RA 5.0 μM) [%]	Cell number (AT805 cells (EC cells) [2]; RA 5.0 μM)	CD44-positive and CD29-positive cells (AT805 cells (EC cells) [2]; RA 10.0 μM) [%]	Cell number (AT805 cells (EC cells) [2]; RA 10.0 μM)
C[S+](C)[O-] [DMSO, dimethyl sulfoxide]	most cells died immediately after the treatment	0.3	1.15 ×10^7 cells	0.5	1.19 ×10^7 cells	13.7	1.64 ×10^7 cells	93.0	2.83 ×10^7 cells										
CC1=C(/C=C/C(C)=C/C=C/C(C)=C/C(=O)O)C(C)(C)CCC1 [RA, retinoic acid]										10.8	1.5 ×10^6 cells	10.0	1.1 ×10^6 cells	11.3	1.3 ×10^6 cells	11.5	0.5 ×10^6 cells	10.4	0.7 ×10^6 cells
